# Key:
# FGFR2 = FGFR2 (Homo sapiens (Human), UniProt P21802); experiment: FGFR2 Biochemical Caliper Assay
# Procedure: Compounds of the present invention were also tested in a FGFR2 Biochemical Caliper Assay. Compounds were prepared in 10 mM DMSO solution and serially diluted into 11 concentrations by 3-fold dilution. […] 5 uL of ATP solution (100 uM) was added to start the reaction and the plate was incubated for 90 minutes, then 70 uL of stopping buffer (0.5M EDTA) was added to terminate the reaction. Each well was analyzed using EZ reader.
# SNU16 cells = experiment: SNU16 Cancer Cell Line Proliferation Assay; type: cell-based; settings: SNU-16 cells
# Procedure: Compounds of the present invention were also tested in a SNU16 Cancer Cell Line Proliferation Assay, Test compounds were prepared in a 10 mM DMSO stock solution. 45 uL of stock solution was transferred to a 384 well plate, and a 3-fold 11-point dolution was performed. SNU16 cells in a 384 well cell culture plate were seeded and incubated at 37 degrees for 24 hours. 40 nL of each concentration of compound was transferred from the compound plate to a corresponding well in the cell culture plate by Echo550 liquid handler. The plates were incubated for 96 hours, then equilibrated to room temperature for 15 minutes. 20 uL of CellTiter Glo reagent is added into each well, then the plate was shaken gently for 30 minutes at room temperature. Chemiluminescence was then read on an EnVision reader.
# Sequence of FGFR2 (P21802 22-821): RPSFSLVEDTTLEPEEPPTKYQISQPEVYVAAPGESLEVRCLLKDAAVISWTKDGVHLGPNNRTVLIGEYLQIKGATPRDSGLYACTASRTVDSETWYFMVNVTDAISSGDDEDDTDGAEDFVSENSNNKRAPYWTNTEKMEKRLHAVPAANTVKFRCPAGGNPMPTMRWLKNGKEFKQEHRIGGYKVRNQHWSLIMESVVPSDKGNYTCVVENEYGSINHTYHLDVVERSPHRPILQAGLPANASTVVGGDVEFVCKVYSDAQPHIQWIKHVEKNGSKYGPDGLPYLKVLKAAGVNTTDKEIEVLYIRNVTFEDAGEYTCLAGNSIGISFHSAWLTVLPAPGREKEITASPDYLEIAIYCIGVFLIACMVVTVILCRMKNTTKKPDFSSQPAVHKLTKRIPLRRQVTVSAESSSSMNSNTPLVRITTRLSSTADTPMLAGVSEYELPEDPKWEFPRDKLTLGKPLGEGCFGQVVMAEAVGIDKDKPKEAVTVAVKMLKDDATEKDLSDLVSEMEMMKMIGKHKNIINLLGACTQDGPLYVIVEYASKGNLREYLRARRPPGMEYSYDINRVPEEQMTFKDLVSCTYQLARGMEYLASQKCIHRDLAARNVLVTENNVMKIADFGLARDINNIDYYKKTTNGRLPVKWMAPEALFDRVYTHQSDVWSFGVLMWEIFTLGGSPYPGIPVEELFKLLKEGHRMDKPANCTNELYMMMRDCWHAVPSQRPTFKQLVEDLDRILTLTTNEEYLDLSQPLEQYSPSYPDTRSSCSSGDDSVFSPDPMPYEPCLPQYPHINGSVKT
SMILES,IC50 (FGFR2),IC50 (SNU16 cells; Homo sapiens),IC50 (SNU16 cells)
"C=C(C)C(=O)Nc1ccc(-c2c(C3=CC[C@@H](C(=O)N4CCCC4)CC3)c3c(N)ncnc3n2C)cc1 (single isomer, unassigned) [Example 397]",1000 to 100000 nM,250 to 1000 nM,
"C=C(C)C(=O)Nc1ccc(-c2c(C3=CC[C@H](C(=O)N4CCCC4)CC3)c3c(N)ncnc3n2C)cc1 (single isomer, unassigned) [Example 398]",< 100 nM,≤ 100 nM,
"C=C(C)C(=O)Nc1ccc(-c2c(C3=CC[C@@H](Oc4cccc(C)n4)CC3)c3c(N)ncnc3n2C)cc1 (single isomer, unassigned) [Example 451]",250 to 1000 nM,≤ 100 nM,
"C=C(C)C(=O)Nc1ccc(-c2c(C3=CC[C@H](Oc4cccc(C)n4)CC3)c3c(N)ncnc3n2C)cc1 (single isomer, unassigned) [Example 452]",1000 to 100000 nM,250 to 1000 nM,
"C=C(C)C(=O)Nc1ccc(-c2c(-c3ccc(C(=O)N4CC[C@@H]5C[C@@H]54)cc3)c3c(N)ncnc3n2C)c(F)c1 (single isomer, unassigned) [Example 464]",< 100 nM,≤ 100 nM,
"C=C(C)C(=O)Nc1ccc(-c2c(-c3ccc(C(=O)N4CC[C@H]5C[C@H]54)cc3)c3c(N)ncnc3n2C)c(F)c1 (single isomer, unassigned) [Example 466]",< 100 nM,≤ 100 nM,
C=CC(=O)Nc1ccc(-c2c(-c3ccc(Oc4cccc(C)n4)c(OC)c3)c3c(N)ncnc3n2C)cc1 [Example 1],< 100 nM,≤ 100 nM,
C=C(C)C(=O)Nc1ccc(-c2c(-c3ccc(Oc4cccc(C)n4)c(OC)c3)c3c(N)ncnc3n2C)cc1 [Example 4],< 100 nM,≤ 100 nM,
C=CC(=O)Nc1ccc(-c2c(-c3ccc(Oc4ccccn4)c(OC)c3)c3c(N)ncnc3n2C)cc1 [Example 5],< 100 nM,≤ 100 nM,
C=CC(=O)Nc1ccc(-c2c(-c3ccc(Oc4cccc(C)n4)cc3)c3c(N)ncnc3n2C)cc1F [Example 11],< 100 nM,≤ 100 nM,
C=CC(=O)Nc1ccc(-c2c(-c3ccc(Oc4cccc(C)n4)cc3)c3c(N)ncnc3n2C)cc1OC [Example 14],< 100 nM,≤ 100 nM,
C=CC(=O)Nc1ccc(-c2c(-c3ccc(Oc4ncccn4)c(OC)c3)c3c(N)ncnc3n2C)cc1 [Example 15],< 100 nM,≤ 100 nM,
CC#CC(=O)Nc1ccc(-c2c(-c3ccc(Oc4cccc(C)n4)c(OC)c3)c3c(N)ncnc3n2C)cc1 [Example 18],,≤ 100 nM,
C/C=C/C(=O)Nc1ccc(-c2c(-c3ccc(Oc4cccc(C)n4)c(OC)c3)c3c(N)ncnc3n2C)cc1 [Example 31],< 100 nM,≤ 100 nM,
C=CC(=O)Nc1ccc(-c2c(-c3ccc(Oc4ncc(C)cn4)c(OC)c3)c3c(N)ncnc3n2C)cc1 [Example 32],< 100 nM,≤ 100 nM,
C=CC(=O)Nc1ccc(-c2c(-c3ccc(Oc4cccc(Cl)n4)c(OC)c3)c3c(N)ncnc3n2C)cc1 [Example 35],< 100 nM,≤ 100 nM,
C=C(C)C(=O)Nc1ccc(-c2c(-c3ccc(Oc4ncccn4)c(OC)c3)c3c(N)ncnc3n2C)cc1 [Example 36],250 to 1000 nM,100 to 250 nM,
C=CC(=O)Nc1ccc(-c2c(-c3ccc(Oc4nccc(C)n4)c(OC)c3)c3c(N)ncnc3n2C)cc1 [Example 38],< 100 nM,≤ 100 nM,
C=CC(=O)Nc1ccc(-c2c(-c3ccc(Oc4ccc(C)c(C)n4)c(OC)c3)c3c(N)ncnc3n2C)cc1 [Example 45],< 100 nM,≤ 100 nM,
C=CC(=O)Nc1ccc(-c2c(-c3ccc(Oc4ncccn4)c(C(F)(F)F)c3)c3c(N)ncnc3n2C)cc1 [Example 47],< 100 nM,≤ 100 nM,
C=CC(=O)Nc1ccc(-c2c(-c3ccc(Oc4ncccn4)c(CC)c3)c3c(N)ncnc3n2C)cc1 [Example 48],< 100 nM,≤ 100 nM,
C=CC(=O)Nc1ccc(-c2c(-c3ccc(Oc4ncccn4)c(N(C)C)c3)c3c(N)ncnc3n2C)cc1 [Example 49],< 100 nM,≤ 100 nM,
C=CC(=O)Nc1ccc(-c2c(-c3ccc(Oc4cccc(CC)n4)c(OC)c3)c3c(N)ncnc3n2C)cc1 [Example 50],< 100 nM,≤ 100 nM,
C=CC(=O)Nc1ccc(-c2c(-c3ccc(Oc4ncccn4)c(OCC)c3)c3c(N)ncnc3n2C)cc1 [Example 51],< 100 nM,≤ 100 nM,
C=CC(=O)Nc1ccc(-c2c(-c3ccc(Oc4ncccn4)c(OC(F)(F)F)c3)c3c(N)ncnc3n2C)cc1 [Example 53],< 100 nM,≤ 100 nM,
C=CC(=O)Nc1ccc(-c2c(-c3ccc(Oc4ncccn4)cc3)c3c(N)ncnc3n2C)cc1 [Example 54],< 100 nM,≤ 100 nM,
C=C(C)C(=O)Nc1ccc(-c2c(-c3ccc(Oc4nccc(C)n4)c(F)c3)c3c(N)ncnc3n2C)cc1 [Example 343],,≤ 100 nM,
C=C(C)C(=O)Nc1ccc(-c2c(-c3ccc(Oc4nccc(C)n4)c(F)c3)c3c(N)ncnc3n2C)c(C)c1 [Example 495],,,≤ 100 nM

# Further lines, results first:
IC50 (FGFR2),IC50 (SNU16 cells; Homo sapiens),IC50 (SNU16 cells),SMILES
< 100 nM,≤ 100 nM,,"C=C(C)C(=O)Nc1ccc(-c2c(-c3ccc(Oc4nccc(C)n4)c(F)c3)c3c(N)ncnc3n2[C@H]2CCOC2)cc1 (single isomer, unassigned) [Example 538]"
< 100 nM,≤ 100 nM,,"C=C(C)C(=O)Nc1ccc(-c2c(-c3ccc(Oc4nccc(C)n4)c(F)c3)c3c(N)ncnc3n2[C@@H]2CCOC2)cc1 (single isomer, unassigned) [Example 539]"
100 to 250 nM,≤ 100 nM,,"C=C(C)C(=O)Nc1ccc(-c2c(C3=CC[C@H](Oc4ccn(C)n4)CC3)c3c(N)ncnc3n2C)cc1 (single isomer, unassigned) [Example 550]"
250 to 1000 nM,250 to 1000 nM,,"C[C@@H](Cl)C(=O)Nc1ccc(-c2c(-c3ccc(C(=O)N4CCCC4)cc3)c3c(N)ncnc3n2C)cc1 (single isomer, unassigned) [Example 559]"
100 to 250 nM,100 to 250 nM,,"C[C@H](Cl)C(=O)Nc1ccc(-c2c(-c3ccc(C(=O)N4CCCC4)cc3)c3c(N)ncnc3n2C)cc1 (single isomer, unassigned) [Example 560]"
< 100 nM,≤ 100 nM,,"Cn1c(-c2ccc(NC(=O)C3=CCC3)cc2)c(C2=CC[C@@H](C(=O)N3CCCC3)CC2)c2c(N)ncnc21 (single isomer, unassigned) [Example 565]"
< 100 nM,≤ 100 nM,,"C=C(C)C(=O)Nc1ccc(-c2c(C3=CC[C@@H](C(=O)N4CCC[C@H]4C#N)CC3)c3c(N)ncnc3n2C)cc1 (single isomer, unassigned) [Example 582]"
100 to 250 nM,250 to 1000 nM,,"Cn1c(-c2ccc(NC(=O)[C@@H]3CO3)cc2)c(-c2ccc(C(=O)N3CCCC3)cc2)c2c(N)ncnc21 (single isomer, unassigned) [Example 584]"
< 100 nM,≤ 100 nM,,"C=C(C)C(=O)Nc1ccc(-c2c(C3=CC[C@@H](C(=O)N4CC5CC5C4)CC3)c3c(N)ncnc3n2C)cc1 (single isomer, unassigned) [Example 592]"
< 100 nM,≤ 100 nM,,"C=CC(=O)N1CC[C@@H](c2c(-c3ccc(Oc4ncccn4)cc3)c3c(N)ncnc3n2C)C1 (single isomer, unassigned) [Example 697]"
250 to 1000 nM,100 to 250 nM,,"C=CC(=O)N1CC[C@H](c2c(-c3ccc(Oc4ncccn4)cc3)c3c(N)ncnc3n2C)C1 (single isomer, unassigned) [Example 698]"
< 100 nM,≤ 100 nM,,"C=CC(=O)N1CC[C@@H](c2c(-c3ccc(Oc4ncccn4)cc3)c3c(N)ncnc3n2CC)C1 (single isomer, unassigned) [Example 708]"
250 to 1000 nM,100 to 250 nM,,"C=CC(=O)N1CC[C@H](c2c(-c3ccc(Oc4ncccn4)cc3)c3c(N)ncnc3n2CC)C1 (single isomer, unassigned) [Example 710]"
< 100 nM,≤ 100 nM,,"C=CC(=O)N1CC[C@@H](c2c(-c3ccc(Oc4cccc(C)n4)cc3)c3c(N)ncnc3n2C)C1 (single isomer, unassigned) [Example 711]"
< 100 nM,≤ 100 nM,,"C=CC(=O)N1CC[C@H](c2c(-c3ccc(Oc4cccc(C)n4)cc3)c3c(N)ncnc3n2C)C1 (single isomer, unassigned) [Example 712]"
< 100 nM,≤ 100 nM,,"C=CC(=O)N1CC[C@@H](c2[nH]c3ncnc(N)c3c2-c2ccc(Oc3cccc(C)n3)cc2)C1 (single isomer, unassigned) [Example 752]"
250 to 1000 nM,100 to 250 nM,,"C=CC(=O)N1CC[C@H](c2[nH]c3ncnc(N)c3c2-c2ccc(Oc3cccc(C)n3)cc2)C1 (single isomer, unassigned) [Example 754]"
,,≤ 100 nM,C=C(C)C(=O)Nc1ccc(-c2c(-c3ccc(Oc4nccc(C)n4)c(F)c3)c3c(N)ncnc3n2C)c(C(F)F)c1 [Example 496]
,,≤ 100 nM,C=C(C)C(=O)Nc1ccc(-c2c(-c3ccc(Oc4nccc(C)n4)c(F)c3)c3c(N)ncnc3n2C)c(C(F)F)c1 [Example 527]
,,≤ 100 nM,C=C(C)C(=O)Nc1ccc(-c2c(-c3ccc(Oc4nccc(C)n4)c(F)c3)c3c(N)ncnc3n2C)c(C)c1 [Example 531]
,,≤ 100 nM,C=C(C)C(=O)Nc1ccc(-c2c(-c3ccc(Oc4nccc(C)n4)c(F)c3)c3c(N)ncnc3n2C)c(CO)c1 [Example 535]
,1000 to 100000 nM,,C=CC(=O)N1CCC(c2c(-c3ccc(N4CCN(C(C)C)CC4)cc3)c3c(N)ncnc3n2C)C1 (centres unmarked) [Example 770]
